According to US9624167B2, “N-(4-hydroxy-4-methyl-cyclohexyl)-4-phenyl-benzenesulfonamides and N-(4-hydroxy-4-methyl-cyclohexyl)-4-(2-pyridyl)benzenesulfonamides and their therapeutic use” (PIMCO 2664 LIMITED, priority 2013, dated 2017):
pIC50: −log10 of the molar value. ≈ marks a conversion by molar mass, not a printed value. Like-named read-outs stand apart in the source and are kept apart here.

Assays:
[1] = tested on: J774 macrophages; experiment: Resazurin Macrophage J774 Viability Assay; type: cell-based; conditions: Mus musculus, 6 point concentration range 10 μM to 10 nM, n = 3 replicates, mean of 2 independent experiments, 72 hour incubation, read-out: IC50 (1)
Procedure: Potency was assessed using a viability assay based on the survival of the J774 macrophage cell line. Macrophages are closely related to osteoclasts and have been used previously as a model system for osteoclast survival (see, e.g., Luckman et al., 1998, “Heterocycle-containing bisphosphonates cause apoptosis and inhibit bone resorption by preventing protein prenylation: evidence from structure-activity relationships in J774 macrophages,” J. Bone Miner. Res., Vol. 13, pp. 1668-1678). The model is indicative both of effects on bone protection in diseases such as osteoporosis, osteoarthritis and rheumatoid arthritis, and of effects on inflammation since, like osteoclasts, J774 macrophages are dependent for survival on continued NFκB activation.
In vitro potency of test compounds was determined by incubation with J774 macrophages and subsequent determination of cell viability using resazurin.
Resazurin is a redox dye commonly used as an indicator of viability in cultured cells (see, e.g., Anoopkumar-Dukie, 2005, British Journal of Radiology, Vol. 78, pp. 945-947). It is non-toxic to cells and stable in culture medium, allowing continuous measurement of cell proliferation in vitro as either a kinetic or endpoint assay. The assay is based on the ability of viable, metabolically-active cells to reduce resazurin (which is blue and non-fluorescent) to resorufin and dihydroresorufin (which are red and fluorescent) using electrons from reducing species, such as nicotinamide adenine dinucleotide (NADPH) and flavin adenine dinucleotide (FADH). This transformation, from oxidised form to reduced form, can be measured either colorimetrically or fluorometrically. Insults that impair cell viability and proliferation also affects the capacity of cells to reduce resazurin, and the rate of dye reduction is directly proportional to the number of viable cells present.
For fluorescence measurements, 530-560 nm excitation and 590 nm emission wavelengths are typically used. For colorimetric measurements, absorbance at 570 nm (reduced form) and 600 nm (oxidised form) is typically measured. A simple calculation is performed to determine the relative quantities of the two species: a high ratio of resorufin (the reduced form) to resazurin (the oxidised form) is an indicator that cells are proliferating and viable. A low ratio indicates cells that are quiescent or non-viable.
J774 cells were plated at 10^4 cells per well in 100 μL αMEM (α Modified Eagle Medium) in 96-well plates and allowed to adhere overnight. The following day, test compounds were prepared as 100 mM solutions in DMSO. These stock solutions were diluted in DMSO and then diluted 1000× in culture medium (αMEM) before being added directly to the wells so as to give the desired final compound concentration. After a 72 hour incubation at 37° C./5% CO2, resazurin (Alamar Blue, Biosource International) was added to each well (1:10 v/v, 10 μL). The plate was then incubated at 37° C. for 3 hours and fluorescence was measured at 590 nm, with a 25 nm bandwidth.
The average results for each test compound were expressed as a percent (%) of the average control value reflecting cell viability. The average values across the concentrations tested were then plotted and the IC50 for was calculated by fitting the data to a 4-parameter IC50 equation using software from Grafit (Erithacus Software). Each experiment was repeated twice and the data are presented as the mean IC50 from both experiments.

[2] = biological target: T1, hERG ion channel (Homo sapiens, UniProt Q12809); experiment: hERG Ion Channel Assay (Q-patch, hERG-CHO cells); type: cell-based; conditions: hERG tail current, hERG-CHO cells, Q-patch; read-out: IC50 (1)
T1 construct: expressed in transfected cells; host or cells: Chinese Hamster Ovary cells (hERG-CHO), stably transfected
T1 sequence (Q12809 whole entry): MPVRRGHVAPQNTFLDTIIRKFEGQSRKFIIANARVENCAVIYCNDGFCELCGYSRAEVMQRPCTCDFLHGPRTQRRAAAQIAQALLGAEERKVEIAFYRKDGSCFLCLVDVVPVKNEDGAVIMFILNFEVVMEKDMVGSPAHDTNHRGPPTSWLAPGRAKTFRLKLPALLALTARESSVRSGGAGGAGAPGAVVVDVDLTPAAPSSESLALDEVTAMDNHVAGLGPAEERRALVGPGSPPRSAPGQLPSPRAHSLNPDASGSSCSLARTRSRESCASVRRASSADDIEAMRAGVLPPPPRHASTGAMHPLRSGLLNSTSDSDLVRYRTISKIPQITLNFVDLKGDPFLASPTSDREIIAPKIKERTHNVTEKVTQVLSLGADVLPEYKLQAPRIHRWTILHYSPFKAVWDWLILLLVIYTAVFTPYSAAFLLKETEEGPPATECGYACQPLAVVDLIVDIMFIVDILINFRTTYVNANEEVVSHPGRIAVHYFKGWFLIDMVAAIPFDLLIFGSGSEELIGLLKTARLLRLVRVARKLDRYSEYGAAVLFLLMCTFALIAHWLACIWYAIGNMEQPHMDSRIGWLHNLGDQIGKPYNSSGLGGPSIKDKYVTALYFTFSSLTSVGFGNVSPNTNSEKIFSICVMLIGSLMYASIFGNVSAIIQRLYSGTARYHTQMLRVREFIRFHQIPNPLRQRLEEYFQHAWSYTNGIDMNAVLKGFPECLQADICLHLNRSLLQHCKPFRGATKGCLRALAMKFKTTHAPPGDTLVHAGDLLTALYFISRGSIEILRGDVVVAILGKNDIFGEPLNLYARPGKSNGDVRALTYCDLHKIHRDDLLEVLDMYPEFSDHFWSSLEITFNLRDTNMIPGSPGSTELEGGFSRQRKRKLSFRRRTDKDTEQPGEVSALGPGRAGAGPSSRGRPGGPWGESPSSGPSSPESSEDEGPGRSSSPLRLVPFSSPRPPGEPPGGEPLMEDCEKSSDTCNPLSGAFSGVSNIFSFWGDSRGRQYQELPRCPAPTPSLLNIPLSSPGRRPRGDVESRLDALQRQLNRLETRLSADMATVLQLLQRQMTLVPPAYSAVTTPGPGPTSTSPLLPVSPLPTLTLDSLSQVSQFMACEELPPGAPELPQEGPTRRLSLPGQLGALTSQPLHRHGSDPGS
Procedure: (§1) The activity of the compounds against the hERG ion channel was tested. The assay was conducted using the automated path-clamp, Q-patch method using stably transfected Chinese Hamster Ovary cells (hERG-CHO). hERG-CHO cells were cultured in F-12 Kaighn's Nutrient Mixture medium (Invitrogen)+10% FBS at 37° C. for 1-3 days. Cells were kept at 30° C. for 24 to 48 hours prior to patch clamping in order to increase the hERG current amplitude. Subsequently, the cells were harvested by trypsinisation, and kept in Serum Free Medium (SFM) in the Q-patch cell preparation state for up to 6 hours at room temperature before being washed and re-suspended in extracellular solution and applied to the patch clamp sites for data recording.
(§2) Patch-clamp voltage protocol: After whole cell configuration was achieved, the cell was held at −80 mV. A 50 millisecond pulse to −40 mV was delivered to measure the leaking current, which was subtracted from the tail current on-line. Then the cell was depolarized to +20 mV for 2 seconds, followed by a one second pulse to −40 mV to reveal hERG tail current. This paradigm was delivered once every 5 seconds to monitor the current amplitude.
(§3) Extracellular solution: 137 mM NaCl, 4 mM KCl, 1.8 mM CaCl2, 1 mM MgCl2, 10 mM D(+)-glucose, 10 mM HePES buffer (pH adjusted to 7.4 with NaOH).
(§4) After the whole cell configuration was achieved, the extracellular solution (control) was applied first and the cell was stabilized for 2 minutes in extracellular solution. The test compound was then applied from low concentrations to high concentrations cumulatively. The cell was incubated with each test concentration for 5 minutes. During each incubation, the cell was repetitively stimulated using the voltage protocol described above, and the tail current amplitude was continuously monitored.
(§5) • (1) Peak tail current >100 pA in control. • (2) Initial run-down <30% and the run-down stops before first application of the test compound. • (3) Leak currents <50% of the control peak tail currents at any time. • (4) rs<20 MΩ throughout the experiment.
(§6) The degree of inhibition (%) was obtained by measuring the tail current amplitude, induced by a one second test pulse to −40 mV after a two second pulse to +20 mV, before and after incubation with the test compound. The difference in current was normalized to control and multiplied by 100 in order to obtain the percent inhibition.
(§7) Concentration (log) response curves were fitted to a logistic equation (three parameters assuming complete block of the current at very high test compound concentrations) to generate estimates of the 50% inhibitory concentration (IC50). The concentration-response relationship of each compound was constructed from the percentage reductions of current amplitude by sequential concentrations.

[3] = biological target: T2, hERG (Homo sapiens, UniProt Q12809); experiment: hERG Ion Channel Assay (Q-patch, hERG-CHO cells); type: cell-based; conditions: human, CHO cells stably transfected with hERG (hERG-CHO), pH 7.4, 30 μM, hERG tail current
T2 construct: expressed in transfected cells; host or cells: Chinese Hamster Ovary cells (hERG-CHO), stably transfected
T2 sequence (Q12809 whole entry): as above
Procedure: as §1, §2, §3, §4, §5, §6, §7

[4] = Aqueous (FaSSIF) solubility; type: physicochemical; conditions: fasted state simulated intestinal fluid (FaSSIF); for solubility: pH 6.8, two replicates, read-out: Solubility (2)
Procedure: Solubility was measured by equilibration of the compound in fasted state simulated intestinal fluid (FaSSIF) and quantified by high-performance liquid chromatography (HPLC).
Aqueous solubility was measured by equilibration of compounds with fasted state simulated intestinal fluid (FaSSIF) and quantified spectrophotometrically.
FaSSIF was prepared as described below:
Preparation of blank FaSSIF: 0.21 g of sodium hydroxide (NaOH) pellets, 1.97 g of dihydrogen sodium phosphate (NaH2PO4.2H2O) and 3.09 g of sodium chloride (NaCl) were dissolved in 400 mL of deionised water. […]
Preparation of FaSSIF: 0.056 g of SIF Powder (containing sodium taurocholate and lecithin) (Phares AG) was dissolved in 25 mL of blank FaSSIF and stirred until the powder was completely dissolved. The solution was allowed to stand for 2 hours during which it became opalescent; it was used within 24 hours. The final solution composition was characterised as follows: • Sodium taurocholate: 3 mM • Lecithin: 0.75 mM • Osmolarity: 270±10 mOsmol • pH: 6.5
The optical density was measured at the end of the incubation period for test compounds and a reference used to determine solubility. In brief, two samples were prepared for each determination: a reference sample consisting of a stock solution of test compound in DMSO diluted in system solution (a phosphate free, low absorption buffer) and propanol; and a test sample (prepared in triplicate) consisting of 0.5 mL FaSSIF spiked with test compound at 0.2 mM. Each sample was incubated at room temperature for 16 hours with constant shaking at 250 rpm. At the end of the incubation period, 0.3 mL of each sample was filtered through a pION filter plate (PION, Woburn Mass.), diluted 1:1 with propanol and scanned using UV spectrophotometry at λmax ([…]) using a Spectra Max Plus—Version 2.1000 (Molecular Devices, Sunnyvale, Calif.), with μSOL Explorer solubility determination software (pION, Woburn, Mass.).
FaSSIF solubility was calculated using the following formula:
[formula] wherein: • “OD” is the optical density; • “Cr” is the concentration of the reference (33.4 μM); and • “molecular weight” is for the test compound (e.g., 381.44 for ABD735).

[5] = Human Liver Microsomal Stability; type: in vitro ADME; conditions: both sexes, pooled liver microsomes, pH 7.4, human liver microsomes 0.5 mg/mL protein, 1 μM compound, 6 time points 0-60 min, two replicates, read-out: T1/2 (2)
Procedure: Metabolic stability was measured by determining the rate of disappearance of compound in the presence of human liver microsomal preparations, as quantified by liquid chromatography mass-spectrometry and […] mass-spectrometry (LC-MS/MS).
Metabolic stability of test compounds was measured by determination of the rate of disappearance of the compound when incubated in the presence of human liver microsomes. Liver microsomes are prepared from the endoplasmic reticulum of hepatocytes and are the primary source of the most important enzymes (cytochrome P450s) involved in drug metabolism. Study of drug stability in the presence of liver microsomes is accepted as a valuable model permitting rapid prediction of in vivo drug stability.
Human liver microsomes were obtained from a commercial source. Test compounds (1 μM) were incubated with pooled liver microsomes (male and female). Samples were incubated for a 60 minute period and removed at up to 6 time points and analysed by LC-MS/MS for the presence/amount of test compounds.
Microsomes (final protein concentration 0.25 or 0.5 mg/mL), 0.1 M phosphate buffer pH 7.4, and test compound (final concentration 1 μM; diluted from 10 mM stock solution to give a final DMSO concentration of 0.1%) were incubated at 37° C. prior to the addition of Nicotinamide adenine dinucleotide phosphate (NADPH, final concentration 1 mM) to initiate the reaction. The final incubation volume was 100 μL. A control incubation was included for each compound tested, where 0.1 M phosphate buffer pH 7.4 was added instead of NADPH. […]
Each compound was incubated for 0, 5, 15, 30, 45 or 60 minutes. The reactions were stopped by the addition of 100 μL ice-cold acetonitrile containing internal standard (0.001 mM glipizide) at the appropriate time points. The incubation plates were centrifuged at 4000 rpm for 15 minutes at 4° C. to precipitate the protein and 0.1 mL aliquots were analysed using LC-MS/MS, with the conditions shown in the following table.
From a plot of the natural logarithm of the peak area ratio (i.e., the ratio of compound peak area:internal standard peak area) against time, the gradient of the line was determined.

[6] = tested on: J774 macrophages; experiment: Resazurin Macrophage J774 Viability Assay; type: cell-based; conditions: Mus musculus, 12 point concentration range 10 μM to 0.5 nM, n = 4 replicates, mean of 3 independent experiments, 72 hour incubation, read-out: IC50 (2)
[7] = tested on: IL-6 release from LPS-stimulated Thp1 macrophages; experiment: Thp1 Macrophage IL-6 Release Assay; type: cell-based; conditions: Homo sapiens, THP-1, 1.7 × 10^5 cells/well, 96-well plates, 3 days, 9 point curve, IL6 measured 18 hours after LPS, read-out: IC50 (2)
Source text: Anti-inflammatory effects were further characterised by assessing the production of interleukin-6 (IL-6) by human Thp-1 derived macrophages stimulated with a pro-inflammatory stimulus bacterial lipopolysaccharide (LPS). LPS acts with a cell-surface receptor, Toll-like receptor-4 to activate the NFκB and IRF signalling pathways to produce IL-6. The reduction of IL—in this stimulated assay is indicative of anti-inflammatory effects with utility in the treatment of conditions in which IL-6 production is aberrant.
In vitro potency of test compounds in human cells was determined by incubation with Thp1 macrophages and subsequent stimulation with an inflammatory stimulus (bacterial lipopolysaccharide (LPS)) followed by measurement of cellular interleukin-6 (IL-6) release.
Thp1 cells were plated at a concentration of 1×10^5 cells/well or 1.7×10^5 cells/well in 500 μL or 150 μL RPMI complete media containing 1% penicillin-streptomycin and 10% heat inactivated foetal bovine serum in 24-well plates or 96-well plates, respectively and allowed to adhere overnight. The following day, the cells were stimulated with phorbol myristic acid (PMA) at a final concentration of 100 nM (24-well plates) or 200 nM (96-well plates) to induce differentiation and maintained for up to 8 days with a medium change at 5 days if cells were cultured to 8 days. Test compounds were prepared as […] solutions in DMSO and then serially diluted in DMSO prior to dilution in culture medium.
The diluted compounds were added to the cultures 1 hour prior to stimulation with 100 ng/mL LPS. Following a 16 or 18 hour incubation at 37° C./5% CO2, the cell culture medium was collected and assayed for human IL-6 levels using the human IL-6 duo-set ELISA kit (R&D Systems). The average results for each test compound (n=3) were expressed as a percent (%) of the average control value. The average values across the concentrations tested were then plotted and the IC50 for the inhibition of IL-6 was calculated by fitting the data to a 4-parameter IC50 equation using software from Grafit version 6.0.12 (Erithacus Software Ltd., by Dr Robin Leatherbarrow) or GraphPad Prism version 5.04 for Windows (GraphPad Software, La Jolla, Calif., USA, www.qraphpad.com). Each experiment was repeated twice and the data are presented as the mean IC50 from both experiments.

solubility at 16 h ([4]; kinetic from dmso stock, pH 6.5, three replicates, 16 hours, read-out: Solubility (1)) [µg/mL]	half-life at 1 μM [5] [h]	solubility [4] [µg/mL]	pIC50 [7]	SMILES	pIC50 [1]	pIC50 [2]	inhibition at 5 min, 30 µM [3] [%]	pIC50 [6]
30 (≈ 81.7 µM)				O=S(=O)(N[C@H]1CC[C@H](O)CC1)c1ccc(-c2ccc(F)cc2F)cc1 [ABD599, reference compound]	6.72	5.31	85	
	2.05	190 (≈ 489 µM)	5.99	C[C@]1(O)CC[C@H](NS(=O)(=O)c2ccc(-c3ccc(F)cc3C#N)cc2)CC1 [HMC-C-05-A, 2′-Cyano-4′-fluoro-N-((1r,4r)-4-hydroxy-4-methylcyclohexyl)-[1,1′-biphenyl]-4-sulfonamide]				5.61
	4	110 (≈ 283 µM)	6.72	C[C@]1(O)CC[C@H](NS(=O)(=O)c2ccc(-c3ccc(C#N)cc3F)cc2)CC1 [HMC-C-06-A, 4′-Cyano-2′-fluoro-N-((1r,4r)-4-hydroxy-4-methylcyclohexyl)-[1,1′-biphenyl]-4-sulfonamide]				6.15
				C[C@]1(O)CC[C@@H](NS(=O)(=O)c2ccc(-c3ncc(Cl)cc3Cl)c(F)c2)CC1 [HMC-N-04-B]			60	
